Reference: patent US5668134A, “Method for preventing or reducing photosensitivity and/or phototoxicity reactions to medications” (priority 1994, dated 1997)
Several values for one entry are separate records, joined by “and”; a condition that tells them apart may be missing. Equal entries are not always repeated. Structures can show the parent of a compound that is named as a salt. Where two headings read alike, the source gives them in different places.

How the values were obtained:
Haemophilus influenzae = test: Activity in vitro and in clinical infections; type: cell-based
patients = test: Clinical trials, adverse events; type: in vivo, human
Source text: Photosensitivity and/or phototoxicity reactions have been reported in clinical trials of lomefloxacin HCl to varying degrees. […] These photosensitivity and/or phototoxicity reactions have also occurred in subjects exposed to shaded or diffuse light, including exposure through glass.
In clinical trials, most of the adverse events reported were mild to moderate in severity and transient in nature. During these clinical investigations, 2869 patients received MAXAQUIN®. In 2.6% of the patients, lomefloxacin was discontinued because of adverse events, primarily involving the gastrointestinal system (0.7%), skin (1.0%), or central nervous system (0.5%). The adverse clinical events with the highest incidence (≥1%) in patients, regardless of relationship to drug, were nausea (3.7%), headache (3.2%), photosensitivity (2.4%), dizziness (2.3%), and diarrhea (1.4%).

[1] = tested on: gram-negative and gram-positive organisms; test: Bactericidal activity in vitro, MBC relative to MIC; type: cell-based
Pseudomonas aeruginosa = test: Activity in vitro and in clinical infections; type: cell-based
[2] = Physicochemical properties of lomefloxacin HCl
[3] = Pharmacokinetics in the geriatric population; type: in vivo, human
Source text: This slower elimination most likely reflects the decreased renal function normally observed in the geriatric population.

[4] = tested on: bacterial enzyme DNA gyrase; test: Interference with bacterial DNA gyrase; type: biochemical
Klebsiella pneumoniae = test: Activity in vitro and in clinical infections; type: cell-based
healthy male volunteers = settings: lomefloxacin 400 mg BID, ciprofloxacin 750 mg BID, 14 days, UVA and UVA/UVB
Protocol: This study was a single center, open label, multiple does, parallel, randomized study in healthy male volunteers.
Drug administration began on day three. Single dermatological sites were chosen on each of the subjects to be the site which was to be evaluated over time. Twenty joules of radiation were administered to these sites on day 1, day 6 and day 16. Also, graded UVA-UVB exposure was performed on days 2, 7 and 16. The dermatological responses were scored at 1, 24 and 48 hours after each UVA exposure and at 24 hours after the combined UVA-UVB exposure. The definitions which were employed in interpreting this study were that photosensitivity was to be assessed by exposure duration associated with the smallest dermatological response score above zero, which was defined as the minimal erythrogenic dose after the UVA-UVB exposure. The photosensitivity and/or phototoxicity reaction was taken by definition to be an increase of equal to or greater than 1 unit in what was defined as a dermatological response over baseline values after the UVA exposure.

[5] = tested on: skin of healthy volunteers; test: Example 5: regression of delayed MEDUVA on plasma concentration
Source text: (§1) The relationship between plasma concentration at time of irradiation and delayed MEDUVA was explored using regression analysis by testing the equality of the slopes of the regression of delayed MEDUVA on plasma concentration, obtaining estimates of the parameters of the regression line, and determining the correlation coefficient.

Proteus mirabills = test: Activity in vitro and in clinical infections; type: cell-based
[6] = tested on: skin of healthy volunteers; test: Example 5: severity of radiation-induced photoreactions (edema or blisters)
Protocol: The number of skin patches with edema, or local swelling of the skin surface, were also counted. MEDs were measured separately for UVA and UVB radiation, and for UVA radiation alone. The baseline MED was defined in the manner described hereinabove. The 24 hour evaluation was allowed to be performed in the morning of Study Day 1. Severity of reactions causing edema and/or blisters were graded under the following grading system:
Severity was assessed by comparing the numbers of subjects with responses graded as 2 (edema) or 3 (blisters).

[7] = Tissue or fluid to plasma ratios and blister fluid distribution after oral administration; type: in vivo, human; settings: for Kp: oral, read-out: Mean Tissue or Fluid to Plasma Ratio
Source text: The following are mean tissue or fluid to plasma ratios of lomefloxacin following oral administration.
Equilibrium between the serum and blister fluid is achieved approximately two hours postdose, with a partition coefficient of 1.0 (blister fluid:serum). The concentration vs. time profiles in blister fluid following single dose administration are similar to those obtained at steady-state during a once daily dosing regimen.

[8] = Pharmacokinetics of lomefloxacin in humans (general description); type: in vivo, human
[9] = Solubility of lomefloxacin HCl in urine; type: physicochemical; settings: human
Protocol: Following a single 400 mg dose of lomefloxacin HCl, the solubility of lomefloxacin HCl in urine usually exceeded its peak urinary concentration 2 to 6 fold.

[10] = tested on: skin of healthy volunteers; settings: in vivo
Source text: as §1

[11] = tested on: uncomplicated urinary tract infection; test: Example 4: evening dosing in uncomplicated urinary tract infection; type: in vivo, human; settings: 200 mg at night for 3 nights
Protocol: Patients with uncomplicated urinary tract infection were randomized to receive lomefloxacin HCl 200 mg taken at night for 3 nights and trimethoprim in a double-blind study.

[12] = regardless of relationship to drug
[13] = UVA & UVB, a.m., 0 h post-radiation
[14] = UVA & UVB, a.m., 3 h post-radiation
[15] = UVA & UVB, a.m., 6 h post-radiation
[16] = UVA & UVB, a.m., 24 h post-radiation
[17] = UVA & UVB, a.m., 48 h post-radiation
[18] = UVA & UVB, a.m., 72 h post-radiation
[19] = UVA & UVB, p.m., 0 h post-radiation
[20] = UVA & UVB, p.m., 3 h post-radiation
[21] = UVA & UVB, p.m., 6 h post-radiation
[22] = UVA & UVB, p.m., 24 h post-radiation
[23] = UVA & UVB, p.m., 48 h post-radiation
[24] = UVA & UVB, p.m., 72 h post-radiation

## CCn1cc(C(=O)O)c(=O)c2cc(F)c(N3CCNC(C)C3)c(F)c21 (racemic) [lomefloxacin HCl, monohydrochloride salt of (±)-1-ethyl-6,8-difluoro-1,4-dihydro-7-(3-methyl-1-piperazinyl)-4-oxo-3-quinolinecarboxylic acid]
Haemophilus influenzae
  activity against most strains: active against most strains
patients; 2869 patients
  discontinued because of adverse events: 2.6%
  discontinued because of adverse events, central nervous system: 0.5%
  discontinued because of adverse events, gastrointestinal system: 0.7%
  discontinued because of adverse events, skin: 1.0%
patients; clinical trials
  incidence of photosensitivity: 2.4%
patients; patients exposed to sunlight or artificial ultraviolet light
  photosensitivity and/or phototoxic reactions: Moderate to severe photosensitivity and/or phototoxic reactions have occurred
patients; [12]
  incidence of diarrhea: 1.4%
  incidence of dizziness: 2.3%
  incidence of headache: 3.2%
  incidence of nausea: 3.7%
[1]; generally, except staphylococci
  MBC relative to MIC: ≤ 2 factor
[1]; in vitro
  antibacterial activity: bactericidal agent with in vitro activity against a wide range of gram-negative and gram-positive organisms
Pseudomonas aeruginosa
  activity against most strains: active against most strains
[2]
  solubility in alcohol: practically insoluble in alcohol
  solubility in water: slightly soluble in water
[3]; elderly vs younger subjects
  increase of AUC: approximately 33%
  reduction of plasma clearance: approximately 25%
[3]; human, in vivo, 16 elderly volunteers, single 400 mg dose
  half-life: 8 h
[3]; human, plasma, 16 elderly volunteers, single 400 mg dose, read-out: peak plasma concentration, mean
  Cmax: 4200 ng/mL
[3]; single 400 mg dose
  drug absorption in the elderly: unaffected in the elderly
[4]
  mechanism of bactericidal action: interference with the activity of the bacterial enzyme DNA gyrase
Klebsiella pneumoniae
  activity against most strains: active against most strains
Healthy male volunteers
  rate of photosensitivity reactions: 64%
[5]; in vivo
  correlation coefficient, plasma concentration vs delayed MEDUVA: -0.72
[5]; p<0.001
  slope of regression of delayed MEDUVA on plasma concentration: -4.99
Proteus mirabills
  activity against most strains: active against most strains
[6]; [13]
  NUMBER OF SUBJECTS WITH SCORE >= 2, COUNT: 0 subjects
  SUBJECTS WITH SCORE >= 2, PERCENT: 0.00%
[6]; [14]
  NUMBER OF SUBJECTS WITH SCORE >= 2, COUNT: 0 subjects
  SUBJECTS WITH SCORE >= 2, PERCENT: 0.00%
[6]; [15]
  NUMBER OF SUBJECTS WITH SCORE >= 2, COUNT: 2 subjects
  SUBJECTS WITH SCORE >= 2, PERCENT: 15.38%
[6]; [16]
  NUMBER OF SUBJECTS WITH SCORE >= 2, COUNT: 0 subjects
  SUBJECTS WITH SCORE >= 2, PERCENT: 0.00%
[6]; [17]
  NUMBER OF SUBJECTS WITH SCORE >= 2, COUNT: 0 subjects
  SUBJECTS WITH SCORE >= 2, PERCENT: 0.00%
[6]; [18]
  NUMBER OF SUBJECTS WITH SCORE >= 2, COUNT: 0 subjects
  SUBJECTS WITH SCORE >= 2, PERCENT: 0.00%
[6]; [19]
  NUMBER OF SUBJECTS WITH SCORE >= 2, COUNT: 0 subjects
  SUBJECTS WITH SCORE >= 2, PERCENT: 0.00%
[6]; [20]
  NUMBER OF SUBJECTS WITH SCORE >= 2, COUNT: 0 subjects
  SUBJECTS WITH SCORE >= 2, PERCENT: 0.00%
[6]; [21]
  NUMBER OF SUBJECTS WITH SCORE >= 2, COUNT: 0 subjects
  SUBJECTS WITH SCORE >= 2, PERCENT: 0.00%
[6]; [22]
  NUMBER OF SUBJECTS WITH SCORE >= 2, COUNT: 1 subjects
  SUBJECTS WITH SCORE >= 2, PERCENT: 7.69%
[6]; [23]
  NUMBER OF SUBJECTS WITH SCORE >= 2, COUNT: 0 subjects
  SUBJECTS WITH SCORE >= 2, PERCENT: 0.00%
[6]; [24]
  NUMBER OF SUBJECTS WITH SCORE >= 2, COUNT: 0 subjects
  SUBJECTS WITH SCORE >= 2, PERCENT: 0.00%
[6]; UVA, a.m., 0 h post-radiation
  NUMBER OF SUBJECTS WITH SCORE >= 2, COUNT: 1 subjects
  SUBJECTS WITH SCORE >= 2, PERCENT: 7.69%
[6]; UVA, a.m., 3 h post-radiation
  NUMBER OF SUBJECTS WITH SCORE >= 2, COUNT: 6 subjects
  SUBJECTS WITH SCORE >= 2, PERCENT: 46.15%
[6]; UVA, a.m., 6 h post-radiation
  NUMBER OF SUBJECTS WITH SCORE >= 2, COUNT: 9 subjects
  SUBJECTS WITH SCORE >= 2, PERCENT: 69.23% and 69%
[6]; UVA, a.m., 24 h post-radiation
  NUMBER OF SUBJECTS WITH SCORE >= 2, COUNT: 5 subjects
  SUBJECTS WITH SCORE >= 2, PERCENT: 38.46%
[6]; UVA, a.m., 48 h post-radiation
  NUMBER OF SUBJECTS WITH SCORE >= 2, COUNT: 2 subjects
  SUBJECTS WITH SCORE >= 2, PERCENT: 15.38%
[6]; UVA, a.m., 72 h post-radiation
  NUMBER OF SUBJECTS WITH SCORE >= 2, COUNT: 0 subjects
  SUBJECTS WITH SCORE >= 2, PERCENT: 0.00%
[6]; UVA, p.m., 0 h post-radiation
  NUMBER OF SUBJECTS WITH SCORE >= 2, COUNT: 0 subjects
  SUBJECTS WITH SCORE >= 2, PERCENT: 0.00%
[6]; UVA, p.m., 3 h post-radiation
  NUMBER OF SUBJECTS WITH SCORE >= 2, COUNT: 0 subjects
  SUBJECTS WITH SCORE >= 2, PERCENT: 0.00%
[6]; UVA, p.m., 6 h post-radiation
  NUMBER OF SUBJECTS WITH SCORE >= 2, COUNT: 0 subjects
  SUBJECTS WITH SCORE >= 2, PERCENT: 0.00%
[6]; UVA, p.m., 24 h post-radiation
  NUMBER OF SUBJECTS WITH SCORE >= 2, COUNT: 0 subjects
  SUBJECTS WITH SCORE >= 2, PERCENT: 0.00%
[6]; UVA, p.m., 48 h post-radiation
  NUMBER OF SUBJECTS WITH SCORE >= 2, COUNT: 0 subjects
  SUBJECTS WITH SCORE >= 2, PERCENT: 0.00%
[6]; UVA, p.m., 72 h post-radiation
  NUMBER OF SUBJECTS WITH SCORE >= 2, COUNT: 0 subjects
  SUBJECTS WITH SCORE >= 2, PERCENT: 0.00%
[7]; Blister Fluid
  Kp: 1
[7]; Bronchial mucosa
  Kp: 2.1
[7]; Bronchial secretions
  Kp: 0.6
[7]; Prostatic tissue
  Kp: 2
[7]; Sputum
  Kp: 1.3
[7]; Urine
  Kp: 140
[7]; inflammatory exudate fluid of blisters
  terminal half-life in blister fluid versus serum: same terminal half-life
[7]; postdose
  time to equilibrium between serum and blister fluid: approximately two
[8]; 400 mg oral
  drug concentrations in many body tissues and fluids versus systemic circulation: comparable to or higher than drug concentrations in systemic circulation
[8]; healthy volunteers
  absorption rate: rapidly absorbed
  time to steady-state: by the end of the second day of dosing
[8]; human urine
  number of metabolites identified: 5 metabolites
[8]; human, feces, oral dose, read-out: unchanged drug recovered in the feces
  dose excreted: ~10%
[8]; human, serum, healthy volunteers, after dosing, read-out: time to peak serum concentrations
  Tmax: 1 to 2 h
[8]; in vivo
  metabolism: minimally metabolized
  route of elimination: primarily eliminated by renal excretion
[8]; orally-administered
  oral absorption: one hundred
[9]; pH 5.2
  solubility: 7800 µg/mL
[9]; pH 6.5
  solubility: 2400 µg/mL
[9]; pH 8.12
  solubility: 3030 µg/mL
[10]
  reduction in Minimum Erythema Dose from baseline at high plasma concentration: marked reduction in Minimum Erythema Dose from baseline
  reduction in Minimum Erythema Dose from baseline at low plasma concentration: no reduction in Minimum Erythema Dose from baseline
[11]
  overall incidence of adverse events: 18%
  photosensitivity reactions: no photosensitivity reactions reported
[11]; 7-9 days posttreatment
  clinical success in evaluable patients: 98.1%
